Source: patent US20120277269A1 (priority 2008, published 2012)
Values joined by “and” are separate entries in the source; they are usually repeats but may differ in a detail not shown here. Identical values can stand only once. Like-named read-outs stand apart in the source and are kept apart here.

What was measured:
[1] = system: patients with chronic atrial fibrillation; test: PETRO phase 2 12-week dose finding study; type: in vivo, human
Excerpt: Primary endpoints were bleeding events and changes in D-dimer. […] Minor bleeding was dose related.

[2] = human, in vivo
Procedure: Ezekowitz M D, et al., Dabigatran with or without concomitant aspirin compared with warfarin alone in patients with nonvalvular atrial fibrillation (PETRO study), Am. […] The PETRO study is described below.
Peak levels are seen within 2-3 hours of oral administration. […] Steady-state is reached within 2-3 days with a twice daily regimen. […] The remainder undergoes conjugation with glucuronic acid to form acylglucuronides which are excreted primarily in the bile.

[3] = system: activated partial thromboplastin time (aPTT), ecarin clotting time, and thrombin clotting time; test: Anticoagulant pharmacodynamics (clotting times)
[4] = system: patients with atrial fibrillation
Procedure: The PETRO-Ex study was conducted in 52 centers in the United States, Denmark, The Netherlands, and Sweden.
PETRO-Ex began while the PETRO study was ongoing and investigators were initially kept blinded to patient treatment group until PETRO was completed.
Data were summarized descriptively; no hypothesis was to be tested. Events were analyzed on the basis of the treatment at onset. Incidences were reported as number of patients with events as well as normalized to 100 patient-years on the respective treatment.
Patients who completed PETRO on 50 mg b.i.d. were switched to 150 mg q.d. upon entry in the PETRO-Ex study (N=93 patients). […] Patients who were down titrated to 50 mg q.d. based on a glomerular filtration rate ≦50 mL/min during PETRO were excluded from the long-term trial; patients down-titrated in other dose levels remained on the q.d. treatment at that dose.
The total exposure reflects both trials, PETRO and PETRO-Ex, together.

[5] = system: patients with atrial fibrillation at risk of stroke; parameters: Stroke, Ischemic or Unspecified, RR: dose or concentration left out as unconfirmed
Excerpt: Median follow-up was 2.0 years and the primary outcome was stroke or systemic embolism.
Patients were recruited from 951 clinical centers in 44 countries. In brief, patients were eligible if they had atrial fibrillation documented on electrocardiogram at screening or within 6 months; and at least one of the following: prior stroke or transient ischemic attack; left ventricular ejection fraction less than 40%; New York Heart Association heart failure symptoms of Class 2 or greater within 6 months; age at least 75 years; or age at least 65 years with diabetes mellitus, hypertension or coronary artery disease.
The time in therapeutic range was calculated by the method of Rosendaal (Rosendaal F R, et al., A method to determine the optimal intensity of oral anticoagulant therapy, Thromb Haemost, 1993, 69:236-239), excluding INRs from the first week and after discontinuations. […] Concomitant use of aspirin (less than 100 mg/day) or other antiplatelet agents was allowed.
Liver function testing was performed monthly during the first year of follow-up.
The primary study outcome was stroke or systemic embolism. The primary safety outcome was major hemorrhage. Secondary outcomes were stroke, systemic embolism and death. Other outcomes were myocardial infarction, pulmonary embolism, transient ischemic attacks, and hospitalizations. The primary net benefit-risk outcome was the composite of stroke, systemic embolism, pulmonary embolism, myocardial infarction, death or major hemorrhage. Stroke was defined as sudden onset of focal neurological deficit consistent with the territory of a major cerebral artery and categorized as ischemic, hemorrhagic or unspecified. Hemorrhagic transformation of ischemic stroke was not considered as hemorrhagic stroke. Intracranial hemorrhage included hemorrhagic stroke and sub-dural or sub-arachnoid hemorrhage. Systemic embolism was an acute vascular occlusion of an extremity or organ documented by imaging, surgery or autopsy. Major bleeding was defined as a reduction in hemoglobin level of at least […] or transfusion of at least 2 units of blood or symptomatic bleeding in a critical area or organ. Life-threatening bleeding was a subset of major bleeding that included fatal bleeding, symptomatic intracranial bleeding, bleeding with hemoglobin decrease of more than […] or requiring transfusion of more than 4 units of blood or requiring inotropic agents or necessitating surgery. All other bleeding was considered minor.
All primary and secondary outcome events were blindly and doubly adjudicated. An international team of adjudicators reviewed documents in local languages after blinding; or documents were translated by a independent group and blinded centrally. All transient ischemic attacks were reviewed to ensure that strokes had not been missed. To detect possible unreported events, symptom questionnaires were regularly administered to patients, and adverse events and hospitalization reports were scrutinized for unreported primary or secondary outcomes.
If maximum of the two p-values was greater than 0.025, the minimum of the two p-values must be less than 0.0125, one-sided, to claim statistical significance. All analyses were based on intention-to-treat.

[6] = system: Patients with Non-Valvular Atrial Fibrillation; details: in vivo; cited from earlier work
[7] = individual patients with LFT abnormalities, one table line per patient (age c0, sex c1), # = with concomitant Bilirubin elevation to >2xULN

Compound: CCCCCCOC(=O)NC(=N)c1ccc(NCc2nc3cc(C(=O)N(CCC(=O)OCC)c4ccccn4)ccc3n2C)cc1 [Dabigatran etexilate, 1-methyl-2-[N-[4-(N-n-hexyloxycarbonylamidino)phenyl]aminomethyl]benzimidazol-5-ylcarboxylic ac id-N-(2-pyridyl)-N-(2-ethoxycarbonylethyl)amides]
- Major bleeding events, number ([1]; 300 mg b.i.d. plus ASA groups, 12 weeks): Four
- Elevated transaminases >3× upper limit of normal (ULN) ([1]; all dabigatran etexilate-treated patients): 0.9%
- Minor bleeding ([1]; in vivo): dose related
- Oral bioavailability, average ([2]; po): 6.5%
- Time to peak levels ([2]; po): 2 to 3 h
- Onset of anticoagulant effect after dosing [3]: within one hour
- ALT or AST >2xULN, number of patients ([4]; 50 mg b.i.d.): 0
- ALT or AST >3xULN and Bili >2xULN within 30 days, number of patients ([4]; 50 mg b.i.d.): 0
- ALT or AST >3xULN, number of patients ([4]; 50 mg b.i.d.): 0
- ALT or AST >5xULN, number of patients ([4]; 50 mg b.i.d.): 0
- Adverse Events leading to premature discontinuation, number of patients ([4]; 50 mg b.i.d.): 5
- MI, number of patients ([4]; 50 mg b.i.d.): 0
- Major Bleeds with aspirin, number of patients ([4]; 50 mg b.i.d.): 0
- Major Bleeds without aspirin, number of patients ([4]; 50 mg b.i.d.): 0
- Major Bleeds, number of patients ([4]; 50 mg b.i.d.): 0
- Other MACE, number of patients ([4]; 50 mg b.i.d.): 2
- Stroke and Systemic Thromboembolism, number of patients ([4]; 50 mg b.i.d.): 3
- TIA, number of patients ([4]; 50 mg b.i.d.): 0
- ALT or AST >2xULN, number of patients ([4]; 50 mg q.d.): 0
- ALT or AST >3xULN and Bili >2xULN within 30 days, number of patients ([4]; 50 mg q.d.): 0
- ALT or AST >3xULN, number of patients ([4]; 50 mg q.d.): 0
- ALT or AST >5xULN, number of patients ([4]; 50 mg q.d.): 0
- Adverse Events leading to premature discontinuation, number of patients ([4]; 50 mg q.d.): 0
- MI, number of patients ([4]; 50 mg q.d.): 0
- Major Bleeds with aspirin, number of patients ([4]; 50 mg q.d.): 0
- Major Bleeds without aspirin, number of patients ([4]; 50 mg q.d.): 0
- Major Bleeds, number of patients ([4]; 50 mg q.d.): 0
- Other MACE, number of patients ([4]; 50 mg q.d.): 0
- Stroke and Systemic Thromboembolism, number of patients ([4]; 50 mg q.d.): 0
- TIA, number of patients ([4]; 50 mg q.d.): 0
- ALT or AST >2xULN, number of patients ([4]; 150 mg b.i.d.): 21
- ALT or AST >3xULN and Bili >2xULN within 30 days, number of patients ([4]; 150 mg b.i.d.): 3
- ALT or AST >3xULN, number of patients ([4]; 150 mg b.i.d.): 13
- ALT or AST >5xULN, number of patients ([4]; 150 mg b.i.d.): 7
- Adverse Events leading to premature discontinuation, number of patients ([4]; 150 mg b.i.d.): 67
- MI, number of patients ([4]; 150 mg b.i.d.): 6
- Major Bleeds with aspirin, number of patients ([4]; 150 mg b.i.d.): 11
- Major Bleeds without aspirin, number of patients ([4]; 150 mg b.i.d.): 18
- Major Bleeds without aspirin, rate ([4]; 150 mg b.i.d.): 3.2 % per year
- Major Bleeds, number of patients ([4]; 150 mg b.i.d.): 29
- Other MACE, number of patients ([4]; 150 mg b.i.d.): 7
- Stroke and Systemic Thromboembolism, number of patients ([4]; 150 mg b.i.d.): 7
- TIA, number of patients ([4]; 150 mg b.i.d.): 1
- ALT or AST >2xULN, number of patients ([4]; 150 mg q.d.): 2
- ALT or AST >3xULN and Bili >2xULN within 30 days, number of patients ([4]; 150 mg q.d.): 0
- ALT or AST >3xULN, number of patients ([4]; 150 mg q.d.): 0
- ALT or AST >5xULN, number of patients ([4]; 150 mg q.d.): 0
- Adverse Events leading to premature discontinuation, number of patients ([4]; 150 mg q.d.): 8
- MI, number of patients ([4]; 150 mg q.d.): 0
- Major Bleeds with aspirin, number of patients ([4]; 150 mg q.d.): 0
- Major Bleeds without aspirin, number of patients ([4]; 150 mg q.d.): 3
- Major Bleeds without aspirin, rate ([4]; 150 mg q.d.): 6.5 % per year
- Major Bleeds, number of patients ([4]; 150 mg q.d.): 3
- Other MACE, number of patients ([4]; 150 mg q.d.): 0
- Stroke and Systemic Thromboembolism, number of patients ([4]; 150 mg q.d.): 3
- TIA, number of patients ([4]; 150 mg q.d.): 0
- ALT or AST >2xULN, number of patients ([4]; 300 mg b.i.d.): 4
- ALT or AST >3xULN and Bili >2xULN within 30 days, number of patients ([4]; 300 mg b.i.d.): 0
- ALT or AST >3xULN, number of patients ([4]; 300 mg b.i.d.): 2
- ALT or AST >5xULN, number of patients ([4]; 300 mg b.i.d.): 1
- Adverse Events leading to premature discontinuation, number of patients ([4]; 300 mg b.i.d.): 21
- MI, number of patients ([4]; 300 mg b.i.d.): 0
- Major Bleeds with aspirin, number of patients ([4]; 300 mg b.i.d.): 6
- Major Bleeds without aspirin, number of patients ([4]; 300 mg b.i.d.): 4
- Major Bleeds without aspirin, rate ([4]; 300 mg b.i.d.): 6.3 % per year
- Major Bleeds, number of patients ([4]; 300 mg b.i.d.): 10
- Other MACE, number of patients ([4]; 300 mg b.i.d.): 1
- Stroke and Systemic Thromboembolism, number of patients ([4]; 300 mg b.i.d.): 1
- TIA, number of patients ([4]; 300 mg b.i.d.): 0
- ALT or AST >2xULN, number of patients ([4]; 300 mg q.d.): 3
- ALT or AST >3xULN and Bili >2xULN within 30 days, number of patients ([4]; 300 mg q.d.): 1
- ALT or AST >3xULN, number of patients ([4]; 300 mg q.d.): 3
- ALT or AST >5xULN, number of patients ([4]; 300 mg q.d.): 3
- Adverse Events leading to premature discontinuation, number of patients ([4]; 300 mg q.d.): 19
- MI, number of patients ([4]; 300 mg q.d.): 1
- Major Bleeds with aspirin, number of patients ([4]; 300 mg q.d.): 2
- Major Bleeds without aspirin, number of patients ([4]; 300 mg q.d.): 3
- Major Bleeds without aspirin, rate ([4]; 300 mg q.d.): 2.1 % per year
- Major Bleeds, number of patients ([4]; 300 mg q.d.): 5
- Other MACE, number of patients ([4]; 300 mg q.d.): 1
- Stroke and Systemic Thromboembolism, number of patients ([4]; 300 mg q.d.): 5
- TIA, number of patients ([4]; 300 mg q.d.): 0
- Serious adverse events: cardiac disorders, number of patients ([4]; PETRO-Ex): 80
- Serious adverse events: gastrointestinal disorders, number of patients ([4]; PETRO-Ex): 28
- Serious adverse events: infections, number of patients ([4]; PETRO-Ex): 34
- Serious adverse events: nervous system disorders, number of patients ([4]; PETRO-Ex): 33
- Serious adverse events, number of patients ([4]; PETRO-Ex, including bleeding and thrombotic events): 184
- ALT or AST >2xULN, number of patients ([4]; Total, all doses): 30
- ALT or AST >3xULN and Bili >2xULN within 30 days, number of patients ([4]; Total, all doses): 4
- ALT or AST >3xULN, number of patients ([4]; Total, all doses): 18
- ALT or AST >5xULN, number of patients ([4]; Total, all doses): 11
- Adverse Events leading to premature discontinuation, number of patients ([4]; Total, all doses): 120
- MI, number of patients ([4]; Total, all doses): 7
- Major Bleeds with aspirin, number of patients ([4]; Total, all doses): 19
- Major Bleeds without aspirin, number of patients ([4]; Total, all doses): 26
- Major Bleeds without aspirin, rate ([4]; Total, all doses): 3.2 % per year
- Major Bleeds, number of patients ([4]; Total, all doses): 44
- Other MACE, number of patients ([4]; Total, all doses): 11
- Stroke and Systemic Thromboembolism, number of patients ([4]; Total, all doses): 20
- TIA, number of patients ([4]; Total, all doses): 1
- ALT or AST >3xULN and Bili >2xULN within 30 days, number of patients ([4]; Total, all doses, listed as dabigatran etexilate): four

Compound: [H]/N=C(/N)c1ccc(NCc2nc3cc(C(=O)N(CCC(=O)O)c4ccccn4)ccc3n2C)cc1 [Dabigatran]
- Stroke, Ischemic or Unspecified, RR [5]: 0.68
- Stroke, systemic embolism, pulmonary embolism, myocardial infarction death or major bleed (net benefit), RR ([5]; Dabigatran 110 mg vs. Warfarin): 0.92
- Stroke, systemic embolism, pulmonary embolism, myocardial infarction death or major bleed (net benefit), RR ([5]; Dabigatran 150 mg vs. 110 mg): 0.98
- Stroke, systemic embolism, pulmonary embolism, myocardial infarction death or major bleed (net benefit), RR ([5]; Dabigatran 150 mg vs. Warfarin): 0.90
- Stroke, RR ([5]; Dabigatran 180 mg vs. 110 mg): 0.70
- Hepatotoxicity in serial measurement of liver function tests ([5]; human, in vivo): no evidence of hepatotoxicity
- Time to steady-state [2]: 2 to 3 days
- Effect on aPTT, ecarin clotting time, and thrombin clotting time [3]: dose dependent prolongation
- LFT abnormality ALT/ULN [4, 7]: >5x (4×) and >5x^# (2×) and >3x (5×) and >3x^#
- LFT abnormality AST/ULN [4, 7]: >5x^# (4×) and >5x (4×) and >3x (5×)

Compound: CCOC(=O)CN[C@@H](C(=O)N1CC[C@H]1C(=O)NCc1ccc(/C(N)=N\O)cc1)C1CCCCC1 [Ximelagatran]
- Hepatotoxicity [6]: found to be hepatotoxic
